13 compounds from ChEMBL document CHEMBL1201862, “PubChem BioAssay data set” (2004) can be followed below.

Active and inactive are the calls of the source.

Test [1] has as its target T1, Microphthalmia-associated transcription factor (Homo sapiens, UniProt O75030).
T1 sequence (O75030 whole entry): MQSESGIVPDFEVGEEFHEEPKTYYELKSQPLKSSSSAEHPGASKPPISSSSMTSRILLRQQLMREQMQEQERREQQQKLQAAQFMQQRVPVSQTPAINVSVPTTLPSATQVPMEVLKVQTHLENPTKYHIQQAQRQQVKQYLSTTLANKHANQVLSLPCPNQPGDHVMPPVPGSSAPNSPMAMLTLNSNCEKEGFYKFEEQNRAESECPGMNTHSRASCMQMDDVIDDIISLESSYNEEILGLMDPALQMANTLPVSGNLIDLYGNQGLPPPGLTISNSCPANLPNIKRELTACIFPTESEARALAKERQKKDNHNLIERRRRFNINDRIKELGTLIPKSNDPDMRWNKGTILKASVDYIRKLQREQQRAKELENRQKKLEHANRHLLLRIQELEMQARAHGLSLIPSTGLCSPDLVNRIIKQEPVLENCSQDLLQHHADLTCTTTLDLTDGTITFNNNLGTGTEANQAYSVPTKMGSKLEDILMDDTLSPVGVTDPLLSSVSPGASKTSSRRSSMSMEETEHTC
Briefly: TRPM1 promoter luciferase signal decrease, dose response, MITF inhibitor project, cell-based, SK-MEL-5, cherry-picked, set 3 (AID 493073).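 Note: SK-MEL-5 melanoma cells with luciferase driven by the MITF target TRPM1 promoter.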 The test is classed as functional.

Test [2] deals with Vero. Briefly: cells. It is filed as functional. The settings on record: Chlorocebus sabaeus.
The target in test [3] is T2, Heat shock factor protein 1 (Mus musculus, UniProt P38532).
T2 sequence (P38532 whole entry): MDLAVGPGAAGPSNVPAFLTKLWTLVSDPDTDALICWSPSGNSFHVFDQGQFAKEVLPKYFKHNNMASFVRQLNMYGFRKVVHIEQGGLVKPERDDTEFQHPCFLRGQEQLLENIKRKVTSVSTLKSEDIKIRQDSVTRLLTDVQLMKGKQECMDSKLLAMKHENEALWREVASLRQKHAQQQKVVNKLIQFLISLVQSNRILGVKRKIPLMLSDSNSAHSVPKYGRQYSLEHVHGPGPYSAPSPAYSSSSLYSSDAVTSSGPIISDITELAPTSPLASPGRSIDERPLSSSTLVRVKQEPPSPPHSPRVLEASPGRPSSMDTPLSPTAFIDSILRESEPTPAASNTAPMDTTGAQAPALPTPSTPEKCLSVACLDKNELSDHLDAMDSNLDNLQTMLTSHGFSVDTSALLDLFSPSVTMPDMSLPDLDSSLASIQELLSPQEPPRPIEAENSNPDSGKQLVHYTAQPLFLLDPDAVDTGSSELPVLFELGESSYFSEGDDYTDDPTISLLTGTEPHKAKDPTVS
Briefly: inhibition of MG132-induced HSE-luciferase signal, confirmation, cell-based, NIH3T3, luminescence, dose retest (AID 2382).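 Note: NIH3T3 fibroblasts with HSF1-driven luciferase reporter stressed by proteasome inhibitor MG132; luminescence from HSF1-driven luciferase expression after 8 hours of MG132 stress.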 It is filed as functional.

For test [4], the target named is T3, Long-chain-fatty-acid--AMP ligase FadD28 (Mycobacterium tuberculosis, UniProt P9WQ59).
T3 sequence (P9WQ59 whole entry): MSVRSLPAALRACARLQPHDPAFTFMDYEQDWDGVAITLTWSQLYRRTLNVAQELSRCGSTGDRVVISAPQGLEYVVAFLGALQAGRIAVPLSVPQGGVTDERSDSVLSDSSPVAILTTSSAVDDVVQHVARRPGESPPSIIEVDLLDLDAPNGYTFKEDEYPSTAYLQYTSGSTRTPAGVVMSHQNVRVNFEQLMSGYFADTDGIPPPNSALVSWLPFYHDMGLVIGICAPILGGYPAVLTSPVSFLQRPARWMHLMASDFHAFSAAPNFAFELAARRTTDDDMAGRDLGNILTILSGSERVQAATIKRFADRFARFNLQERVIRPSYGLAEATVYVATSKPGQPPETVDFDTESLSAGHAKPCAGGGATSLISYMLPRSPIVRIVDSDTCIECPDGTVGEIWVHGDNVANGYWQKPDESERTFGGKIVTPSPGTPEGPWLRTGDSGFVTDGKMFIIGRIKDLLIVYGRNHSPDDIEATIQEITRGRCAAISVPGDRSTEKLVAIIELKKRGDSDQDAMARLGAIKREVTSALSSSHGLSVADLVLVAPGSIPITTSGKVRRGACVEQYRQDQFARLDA
Briefly: Fluorescence polarization aasay to screen for inhibitors that compete for the binding of FadD28 to a bisubstrate Measured in Biochemical System Using Plate Reader - 2147-01_Inhibitor_Dose_CherryPick_Activity. The test is classed as functional, Mycobacterium tuberculosis H37Rv. Background: In fluorescence polarisation assays a small probe gives low polarisation when free and higher when bound to something large.

The target in test [5] is Nonstructural protein 1 (Influenza A virus, UniProt Q194T2). The test is classed as functional, Influenza A virus (A/California/07/2009(H1N1)).
Chain of Nonstructural protein 1 (Q194T2 whole entry): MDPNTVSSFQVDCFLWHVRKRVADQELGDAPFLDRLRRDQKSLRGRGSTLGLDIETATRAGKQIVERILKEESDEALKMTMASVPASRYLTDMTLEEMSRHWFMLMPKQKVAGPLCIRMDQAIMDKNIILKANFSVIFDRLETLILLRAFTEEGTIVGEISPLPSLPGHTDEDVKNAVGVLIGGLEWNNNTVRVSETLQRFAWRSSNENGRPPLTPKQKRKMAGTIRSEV
In test [6] the target is Heat shock protein HSP 90-alpha (Homo sapiens, UniProt P07900). It is filed as functional, organism-based.
Test [7] in a line: Shn3 3'UTR reporter inhibitors, dose response, cell-based, Clone20 osteoblasts, firefly luciferase, cherry-picked (AID 624132).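 Note: firefly luciferase luminescence from reporter carrying the Shn3 3'UTR in osteoblasts.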 The test is classed as functional.
Test [8] can be described thus: HepG2 cell cytotoxicity, dose response, cytotoxicity control for Shn3 inhibitor project, CellTiter-Glo, cherry-picked (AID 624134). The test is classed as functional, cell-based. Background: Cellular ATP, detected with luciferase, serves as a proxy for viable cell number.
Test [9] can be described thus: control 3'UTR Renilla luciferase suppression, dose response, counter-screen for Shn3 inhibitor project, cell-based, Clone20-Shn3RL, cherry-picked (AID 624133). It is filed as functional.
Test [10] has as its system HEK293. Briefly: NOD1 signaling inhibitors, primary screen, cell-based, luminescence, uHTS (AID 1578). The test is classed as functional. The settings on record: Homo sapiens.
The test system of test [11] is HEK293. Briefly: cells. As to conditions: Homo sapiens. It is filed as functional, cell-based.
Test [12] has as its system HEK293. Briefly: cells. It is filed as functional, cell-based. The settings on record: Homo sapiens. The source holds these as a separate data set.
Test [13] concerns HEK293. Briefly: NOD2 signaling inhibitors in MDP-stimulated cells, cell-based, uHTS, luminescence (AID 2001). It is filed as functional. As to conditions: Homo sapiens.
Test [14] is described as follows: growth suppression of PTEN-null colon cells, dose response, cell-based, HCT116 PTEN knockout (AID 1047).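 Note: HCT116 colon tumor cells with PTEN knocked out; cells exposed to compound for 60 hours before readout; potency for loss of cell viability measured by luminescence.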 It is filed as functional.
A short description of test [15]: growth suppression of beta-catenin-knockout colon cells, dose response, cell-based, HCT116, human colon tumor (AID 1045).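 Note: HCT116 colon tumor cells with beta catenin knocked out; cells exposed to compound for 60 hours.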 The test is classed as functional.
Test [16] can be described thus: cells. It is filed as functional, cell-based.
A short description of test [17]: cells. The test is classed as functional, cell-based. This is another data set of the same source.
Test [18] has as its system INS1. Briefly: beta cell apoptosis inhibitors, cytokine rescue, dose response, luminescence, retest (AID 449756).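 Note: cell death triggered by IL-1 beta plus TNF-alpha plus IFN-gamma mixture; protective hits raise ATP signal compared with cytokine alone wells.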 The test is classed as functional, cell-based. As to conditions: Rattus norvegicus.
The nature of test [19]: inhibitors of HIV Env-driven cell fusion, dose response, cherry-pick (AID 652057). It is filed as functional, cell-based.
Test [20] is described as follows: ZM109 Env clade C HIV-1 fusion inhibitors, dose response, HeLa effector, CEM target cells, luciferase, cherry-pick (AID 652058). It is filed as functional, cell-based.
Test [21] is described as follows: off-target signal loss in HeLa-CEM21 co-culture – HeLa F-luc CTL cells, cherry-picked, counter-screen for HIV-1 Env fusion inhibitor project, dose response (AID 652040).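 Note: potency for signal decrease marking cytotoxic or nonspecific inhibition.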 It is filed as functional, cell-based.
The nature of test [22]: inhibitors of clade B AD8 Env fusion, dose response, cell-based, cherry-pick (AID 652062).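 Note: luciferase signal from cell-cell fusion driven by HIV-1 clade B AD8 Env; potency is for inhibitors of fusion seen as a drop in luminescence.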 The test is classed as functional.
Test [23] concerns the target T4, Sentrin-specific protease 8 (Homo sapiens, UniProt Q96LD8).
T4 sequence (Q96LD8 whole entry): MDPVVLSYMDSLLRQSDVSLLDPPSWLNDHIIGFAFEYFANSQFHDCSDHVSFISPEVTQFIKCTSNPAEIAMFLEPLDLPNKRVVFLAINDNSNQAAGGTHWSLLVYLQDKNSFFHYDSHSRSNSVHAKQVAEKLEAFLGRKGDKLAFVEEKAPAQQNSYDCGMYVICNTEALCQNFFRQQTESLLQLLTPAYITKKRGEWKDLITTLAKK
The test is classed as functional.

Test [24] addresses T4, Sentrin-specific protease 8. It is filed as functional. The source holds these as a separate data set.

In general, AC50 refers to the concentration at which the activity in the assay is half-maximal. Turning to `CC(C)N1C/C(=C/c2cccnc2)C(=O)/C(=C/c2cccnc2)C1`, the AC50 in test [1] is 14.2 µM (active).

As usually defined, the CC50 is the concentration that lowers cell viability or growth by half. Regarding `N#Cc1c(NCCN)nc(-c2ccccc2)c2c1CCCC2`, the CC50 in test [2] was 16.4 µM (active).

In general, EC50 refers to the concentration giving half of the maximal effect. In the case of `COc1cccc(NC(=O)Cn2c(=O)oc3cc(S(=O)(=O)N4CCCC4)ccc32)c1`, in test [3], the concentration giving a half-maximal response (EC50) was > 195 µM (not active). Moreover, in [4], the AC50 is 44.5 µM (active).

As a reminder, the IC50 is the concentration needed to halve the response being measured. With `O=C(Nc1nc(-c2ccccn2)cs1)C1COc2ccccc2O1` (configuration not stated), in [5], the half-maximal inhibitory concentration (IC50) is 10.7 µM (active). The half-maximal activity concentration (AC50) in test [6] was 5.85 µM (active); in [7] it was 5.81 µM (active); in test [8], 47.6 µM (active); in test [9], 4.69 µM (active). Besides, in test [2], the CC50 is 10 µM (active).

`COc1ccc(C(=O)Cn2nnc(-c3ccccc3F)n2)cc1`: the AC50 in test [4] is > 100 µM (inactive).

Take `CCOc1cc(C=C(C(=O)OC)C(=O)OC)ccc1OCc1ccc([N+](=O)[O-])cc1`: the 50% effective concentration (EC50) in test [10] is 11.9 µM (active); in [14], 18 µM (active); in test [15], 16.9 µM (active). Besides, the values for the IC50 in test [11], in [12] and in test [13] were 3.72 µM (active), > 20 µM (inactive) and 5.8 µM (active), respectively.

As to `COc1ccc(C(NC(C)=O)c2ccc3cccnc3c2O)c(OC)c1` (configuration not stated), the EC50 in [16] was 8.62 µM (active); in [17] it was > 350 µM (not active). The concentration at half-maximal activity (AC50) in test [1] was 5.15 µM (active); in test [18], 1.09 µM (active); in [7], 1.74 µM (active); in [8], 2.68 µM (active); in test [9], 2.16 µM (active).

Take `Nc1c(S(=O)(=O)c2cccs2)c2nc3ccccc3nc2n1CCc1ccccc1`: the concentration giving a half-maximal response (EC50) in test [14] is 27 µM (active); in test [15] it was 30 µM (active). Besides, the AC50 is 9.23 µM (active) in test [19], 9.26 µM (active) in test [20] and 12.7 µM (active) in [21].

As to `COc1ccc(CN2CCC(C)(Oc3ccc4c(c3)OCO4)C2)c2ccccc12` (configuration not stated), the half-maximal activity concentration (AC50) was 6.46 µM (active) in test [19], 10.1 µM (active) in test [20], 12.2 µM (active) in test [21] and 10.1 µM (active) in [22].

Consider `C[C@H]1CN([C@@H](C)CO)C(=O)Cc2cc(NC(=O)Cc3cn(C)c4ccccc34)ccc2O[C@H]1CN(C)S(=O)(=O)c1ccccc1`, for which the AC50 in test [19] is 12.7 µM (active); in [20] it was 9.19 µM (active); in [22], 23.5 µM (active).

Take `CCc1nc2ccc(C(=O)NCCN3CCNC3=O)cn2c1N(CC)Cc1cccc(Br)c1`: the AC50 in test [19] was 1.18 µM (active); in test [20], 1.74 µM (active); in [21], 1.85 µM (active); in test [22] it was 3.08 µM (active).

On to `CN(C[C@@H](CC1CCCCC1)N(C[C@H](Cc1ccccc1)N(CCc1ccccc1)N=O)N=O)N=O`, for which the AC50 in test [19] was 5.14 µM (active); in test [20] it was 8.38 µM (active); in test [21], 6.56 µM (active); in test [22], 42.9 µM (active).

Consider `O=[N+]([O-])c1ccc(/C=N/c2ccc(Cl)c([N+](=O)[O-])c2)s1`, for which, in test [6], the concentration at half-maximal activity (AC50) was 2.99 µM (active). Moreover, the results for the half-maximal inhibitory concentration (IC50) in [23] and in test [24] were 3.07 µM (active) and 2.35 µM (active), respectively.
